Reference: patent publication US11827628B2, “Compositions and methods for inhibition of the JAK pathway” (Rigel Pharmaceuticals, Inc., priority 2005, dated 2023)
Structures can show the parent of a compound that is named as a salt. Where two headings read alike, the source gives them in different places.

Tested on: IL-4 stimulated expression of CD23 in human Ramos B cells (JAK-1 and JAK-3)
Assay: Assay for Ramos B-Cell Line Stimulated with IL-4 (CD23 upregulation, FACS)
Type: cell-based
Settings: Ramos B cells stimulated with IL-4, CD23 expression by FACS, read-out: IC50, Example 41
Outline: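 Read-out is surface CD23 by FACS after anti-CD23-PE staining, giving IC50. Before this, cells were stimulated 20-24 h with 50 units/mL (final) human IL-4, following 1 h compound or vehicle pre-treatment at 37 °C; log-phase Ramos B cells, 5×10^4 per well in 5% serum RPMI.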

Structure (SMILES)	IC50 (Homo sapiens, Ramos) [µM]	also measured
CCOC(=O)CN(c1ccc(OC)c(Cl)c1)c1nc(Nc2ccc(C)c(S(N)(=O)=O)c2)ncc1C(=O)OCC [VI-25, N2-(3-Aminosulfonyl-4-methylphenyl)-5-carboethoxy-N4-(N-carboethoxymethylene-N-3-chloro-4-methoxyphenyl)-2,4-pyrimidinediamine]		IC50: 9.91 µM
COc1ccc(Nc2nc(Nc3cccc(S(N)(=O)=O)c3)ncc2C#C[Si](C)(C)C)cc1Cl [VI-28, N2-(3-Aminosulfonylphenyl)-N4-(3-chloro-4-methoxyphenyl)-5-trimethylsilylacetylene-2,4-pyrimidinediamine]		IC50: 0.754 µM
COc1ccc(Nc2nc(Nc3ccncc3S(N)(=O)=O)ncc2F)cc1Cl [VI-31, N2-(3-Aminosulfonylpyrid-4-yl)-N4-(3-chloro-4-methoxyphenyl)-5-fluoro-2,4-pyrimidinediamine]	18.3	
C#CCOc1ccc(Nc2nc(Nc3ccc(C)c(S(=O)(=O)NC(=O)CC)c3)ncc2F)cc1 [VI-56, 5-Fluoro-N2-(4-methyl-3-propionylaminosulfonylphenyl)-N4-[4-(prop-2-ynyloxy)phenyl]-2,4-pyrimidinediamine]		IC50: 9.66 µM
CCC(=O)NS(=O)(=O)c1cccc(Nc2ncc(F)c(Nc3ccc(CCOC(=O)N(C)C)cc3)n2)c1 [VI-64, N4-{4-[2-(Dimethylaminocarbonyloxy)ethyl]phenyl}-5-fluoro-N2-(3-propionylaminosulfonylphenyl)-2,4-pyrimidinediamine]	5.8	
CCC(=O)NS(=O)(=O)c1cccc(Nc2ncc(F)c(Nc3ccc(CCOC(=O)N(C)C)cc3)n2)c1 [VI-66, N4-{4-[2-(Dimethylaminocarbonyloxy)ethyl]phenyl}-5-fluoro-N2-(3-propionylaminosulfonylphenyl)-2,4-pyrimidinediamine sodium salt]		IC50 (sodium salt): 6.09 µM
Cc1ccc(Nc2ncc(F)c(Nc3ccc(CCNC(N)=O)cc3)n2)cc1S(N)(=O)=O [VI-71, N4-{4-[2-(Aminocarbonylamino)ethyl]phenyl}-N2-(3-aminosulfonyl-4-methylphenyl)-5-fluoro-2,4-pyrimidinediamine]	1.07	
NC(=O)NCCc1ccc(Nc2nc(Nc3cccc(S(N)(=O)=O)c3)ncc2F)cc1 [VI-72, N4-{4-[2-(Aminocarbonylamino)ethyl]phenyl}-N2-(3-aminosulfonylphenyl)-5-fluoro-2,4-pyrimidinediamine]	0.455	
C#CCNS(=O)(=O)c1cccc(Nc2ncc(F)c(Nc3ccc(OCC#C)cc3)n2)c1 [VI-78, 5-Fluoro-N2-[3-(prop-2-ynylaminosulfonyl)phenyl]-N4-[4-(prop-2-ynyloxy)phenyl]-2,4-pyrimidinediamine]	0.161	
C#CCNS(=O)(=O)c1cccc(Nc2nc(Nc3ccc(C)c(S(N)(=O)=O)c3)ncc2F)c1 [VI-79, N2-(3-Aminosulfonyl-4-methylphenyl)-5-fluoro-N4-[3-(prop-2-ynylaminosulfonyl)phenyl]-2,4-pyrimidinediamine]	0.096	
C#CCNS(=O)(=O)c1cccc(Nc2nc(Nc3ccc(S(N)(=O)=O)cc3)ncc2F)c1 [VI-80, N2-(4-Aminosulfonylphenyl)-5-fluoro-N4-[3-(prop-2-ynylaminosulfonyl)phenyl]-2,4-pyrimidinediamine]	0.36	
C#CCNS(=O)(=O)c1cccc(Nc2nc(Nc3cccc(S(N)(=O)=O)c3)ncc2F)c1 [VI-81, N2-(3-Aminosulfonylphenyl)-5-fluoro-N4-[3-(prop-2-ynylaminosulfonyl)phenyl]-2,4-pyrimidinediamine]	3.17	
CCCCNS(=O)(=O)c1cccc(Nc2ncc(F)c(Nc3ccc(C)c(C#N)c3)n2)c1 [VI-96, N2-(3-Butylaminosulfonylphenyl)-N4-(3-cyano-4-methylphenyl)-5-fluoro-2,4-pyrimidinediamine]	0.803	
CCCCNS(=O)(=O)c1cccc(Nc2ncc(F)c(Nc3ccc(F)c(Cl)c3)n2)c1 [VI-97, N2-(3-Butylaminosulfonylphenyl)-N4-(3-chloro-4-fluorophenyl)5-fluoro-2,4-pyrimidinediamine]	3.01	
NS(=O)(=O)c1cccc(Nc2ncc(F)c(Nc3ccc(O)cc3)n2)c1 [VI-101, N2-(3-Aminosulfonylphenyl)-5-fluoro-N4-(4-hydroxyphenyl)-2,4-pyrimidinediamine]	0.919	
CCC(=O)NS(=O)(=O)c1cc(Nc2ncc(F)c(Nc3ccc(CCC#N)c(C)c3)n2)ccc1C [VI-103, N4-[4(2-Cyanoethyl)-3-methylphenyl]-5-fluoro-N2-(4-methyl-3-propionylaminosulfonylphenyl)-2,4-pyrimidinediamine]	3.08	
CCC(=O)NS(=O)(=O)c1cc(Nc2ncc(F)c(Nc3ccc(CCC#N)c(C)c3)n2)ccc1C [VI-104, N4-[4-(2-Cyanoethyl)-3-methylphenyl]-5-fluoro-N2-(4-methyl-3-propionylaminosulfonylphenyl)-2,4-pyrimidinediamine Sodium Salt]		IC50 (sodium salt): 1.98 µM

Structure (SMILES)	IC50 (Homo sapiens, Ramos) [µM]	also measured
CCN(CC)S(=O)(=O)c1cc(Nc2ncc(F)c(N(C)c3ccc(Cl)c(Cl)c3)n2)ccc1OC [VI-105, N4-(3,4-dichlorophenyl)-N4-methyl-5-fluoro-N2-[3-(N,N-diethyl)aminosulfonyl-4-methoxyphenyl]-2,4-pyrimidinediamine]	10.3	
NS(=O)(=O)c1cccc(Nc2ncc(F)c(Nc3cccc(S(N)(=O)=O)c3)n2)c1 [VI-113, N2,N4-Bis-(3-aminosulfonylphenyl)-5-fluoro-2,4-pyrimidinediamine]	0.7	
NS(=O)(=O)c1cc(Nc2ncc(F)c(Nc3ccc(Cl)c(S(N)(=O)=O)c3)n2)ccc1Cl [VI-115, N2,N4-Bis-(3-aminosulfonyl-4-chlorophenyl)-5-fluoro-2,4-pyrimidinediamine]	0.89	
COC(=O)[C@@H]1C[C@@H](Nc2nc(Nc3ccc(C)c(S(N)(=O)=O)c3)ncc2F)CN1C(=O)CC#N [VII-1, N2-(3-Aminosulfonyl-4-methylphenyl)-N4-[(2S,4R)-1-(2-cyanoacetyl)-2-methoxycarbonylpyrrolidin-4-yl]-5-fluoro-2,4-pyrimidinediamine]	6.65	
COC(=O)[C@@H]1C[C@H](Nc2nc(Nc3ccc(C)c(S(N)(=O)=O)c3)ncc2F)CN1C(=O)CC#N [VII-2, N2-(3-Aminosulfonyl-4-methylphenyl)-N4-[(2S,4S)-1-(2-cyanoacetyl)-2-methoxycarbonylpyrrolidin-4-yl]-5-fluoro-2,4-pyrimidinediamine]	36.2	
CN1C(=O)C(C)(C)S(=O)(=O)c2ccc(Nc3nc(Nc4cccc(S(N)(=O)=O)c4)ncc3F)cc21 [VII-11, N2-(3-Aminosulphonylphenyl)-5-fluoro-N4-(2,2,4-trimethyl-1,1,3-trioxo-benzo[1,4]thiazin-6-yl)-2,4-pyrimidinediamine]	0.602	
Cc1ccc(Nc2ncc(F)c(Nc3ccc4c(c3)CCC(=O)N4)n2)cc1S(N)(=O)=O [VII-21, N2-(3-Aminosulfonyl-4-methylphenyl)-N4-[3,4-dihydro-(1H)-quinolin-2-one-6-yl]-5-fluoro-2,4-pyrimidinediamine]	0.548	
O=S(=O)(c1ccc(Nc2ncc(F)c(Nc3ccc4c(c3)OCCO4)n2)cc1)N1CCCC1 [VII-24, N4-(3,4-Ethylenedioxyphenyl)-5-fluoro-N2-[4-(pyrrolidin-1-ylsulfonyl)phenyl]-2,4-pyrimidinediamine]	0.623	
CNS(=O)(=O)c1ccc(Nc2ncc(F)c(Nc3ccc4c(c3)OCCO4)n2)cc1OC [VII-25, N4-(3,4-Ethyenedioxyphenyl)-5-fluoro-N2-[4-(N-methyl)aminosulfonyl-3-methoxyphenyl]-2,4-pyrimidinediamine]		IC50: 0.217 µM
CNS(=O)(=O)c1ccc(Nc2ncc(F)c(Nc3ccc4c(c3)NC(=O)C(C)(C)O4)n2)cc1OC [VII-37, N4-(2,2-Dimethyl-3-oxo-4H-benz[1,4]oxazin-6-yl)-5-fluoro-N2-[4-(N-methyl)aminosulfonyl-3-methoxyphenyl]-2,4-pyrimidinediamine]	0.0281	
CN1C(=O)C(C)(C)Oc2ccc(Nc3nc(Nc4ccc(S(N)(=O)=O)cc4)ncc3F)nc21 [VII-43, N2-(4-Aminosulfonylphenyl)-N4-[2,2,4-trimethyl-3-oxo-5-pyrid[1,4]oxazin-5-yl]-5-fluoro-2,4-pyrimidinediamine]		IC50: 0.603 µM
CN1C(=O)C(C)(C)S(=O)(=O)c2ccc(Nc3nc(Nc4ccc(S(N)(=O)=O)cc4)ncc3F)cc21 [VII-46, N2-(4-Aminosulphonylphenyl)-5-fluoro-N4-(2,2,4-trimethyl-1,1,3-trioxo-benzo[1,4]thiazin-6-yl)-2,4-pyrimidinediamine]		IC50: 0.961 µM
CN1C(=O)CSc2ccc(N(CC#N)c3nc(Nc4ccc(S(N)(=O)=O)cc4)ncc3F)cc21 [VII-47, N2-(4-Aminosulphonylphenyl)-N4-cyanomethyl-5-fluoro-N4-[3-oxo-4-methyl-benzo[1,4]thiazin-6-yl]-2,4-pyrimidinediamine]	2.67	
CC1(C)Oc2cc(Nc3nc(Nc4ccc(S(N)(=O)=O)cc4)ncc3F)cnc2NC1=O [VII-52, N2-(4-Aminosulfonylphenyl)-N4-[2,2-dimethyl-3-oxo-4H-5-pyrid[1,4]oxazin-7-yl]-5-fluoro-2,4-pyrimidinediamine]		IC50: 47.1 µM
Cc1ccc(Nc2ncc(F)c(Nc3ccc4nc(O)cc(C)c4c3)n2)cc1S(N)(=O)=O [VII-73, N2-(3-Aminosulfonyl-4-methylphenyl)-5-fluoro-N4-(2-hydroxy-4-methylquinolin-6-yl)-2,4-pyrimidinediamine]	6.09	
Cc1cc(O)nc2ccc(Nc3nc(Nc4cccc(S(N)(=O)=O)c4)ncc3F)cc12 [VII-74, N2-(3-Aminosulfonylphenyl)-5-fluoro-N4-(2-hydroxy-4-methylquinolin-6-yl)-2,4-pyrimidinediamine]	4.56	
Cc1ccc(Nc2ncc(F)c(Nc3ccc4nc(N(C)C)ccc4c3)n2)cc1S(N)(=O)=O [VII-75, N2-(3-Aminosulfonyl-4-methylphenyl)-N4-(2-N,N′-dimethylamine-quinolin-6-yl)-5-fluoro-2,4-pyrimidinediamine]		IC50: 0.544 µM
